Reference: US20110065706A1, “Therapeutic Agents 812” (AstraZeneca AB, priority 2009, published 2011)

biological target: T1, human GPR119 (Homo sapiens, UniProt Q8TDV5); experiment: Cyclic AMP (HTRF cAMP) assay for human GPR119, Method A; format: cell-based; details: HEK293S, 0.75 h; Method A; HEK 293s cells over-expressing human GPR119; percent effect at top concentration 30 μM relative to maximum (50 μM Oleoylethanolamide) and minimum (1% DMSO) controls
T1 construct: expressed in transfected cells; host or cells: HEK 293s
T1 sequence (Q8TDV5 1-335): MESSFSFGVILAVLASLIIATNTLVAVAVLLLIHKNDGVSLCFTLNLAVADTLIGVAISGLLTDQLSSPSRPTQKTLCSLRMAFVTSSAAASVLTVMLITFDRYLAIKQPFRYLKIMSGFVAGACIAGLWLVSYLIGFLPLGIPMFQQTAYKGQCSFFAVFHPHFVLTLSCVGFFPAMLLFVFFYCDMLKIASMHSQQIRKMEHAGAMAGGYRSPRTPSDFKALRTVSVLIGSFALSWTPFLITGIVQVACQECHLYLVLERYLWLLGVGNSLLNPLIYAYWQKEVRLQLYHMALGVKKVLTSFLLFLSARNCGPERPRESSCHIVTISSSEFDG

| Compound | activation at 30 µM |
| --- | --- |
| C[C@@H]1CN(C(=O)OC2(C)COC2)CCN1c1ncc(OCc2ccc(S(C)(=O)=O)cc2)cn1 [Example 80, (R)-3-methyloxetan-3-yl 3-methyl-4-(5-(4-(methylsulfonyl)benzyloxy)pyrimi-din-2-yl)piperazine-1-carboxylate] | 41% |
| C[C@@H]1CN(C(=O)OC2CCOCC2)CCN1c1ncc(OCc2ccncc2C#N)cn1 [Example 82, (R)-Tetrahydro-2H-pyran-4-yl 4-(5-((3-cyanopyridin-4-yl)methoxy)pyrimidin-2-yl)-3-methylpiperazine-1-carboxylate] | 102% |
| CC(C)c1nc(N2CCN(c3ncc(OCc4ccncc4C#N)cn3)CC2)no1 [Example 85, 4-((2-(4-(5-Isopropyl-1,2,4-oxadiazol-3-yl)piperazin-1-yl)pyrimidin-5-yloxy)methyl)nicotinonitrile] | 167% |
| CC(C)c1nc(N2CCN(c3ncc(OCc4ccc(S(C)(=O)=O)cc4)cn3)CC2)no1 [Example 87, 5-Isopropyl-3-(4-(5-(4-(methylsulfonyl)benzyloxy)pyrimidin-2-yl)piperazin-1-yl)-1,2,4-oxadiazole] | 48% |
| CS(=O)(=O)c1ccc(COc2cnc(N3CCN(c4noc(C(F)(F)F)n4)CC3)nc2)cc1 [Example 88, 3-(4-(5-(4-(methylsulfonyl)bcnzyloxy)pyrimidin-2-yl)pipcrazin-1-yl)-5-(trifluoromcthyl)-1,2,4-oxadiazole] | 79% |
| CC(C)c1nc(N2CCN(c3ncc(OCc4ccc(S(C)(=O)=O)cc4)cn3)[C@H](C)C2)no1 [Example 89] | 73% |
| C[C@@H]1CN(c2noc(C(F)(F)F)n2)CCN1c1ncc(OCc2ccc(S(C)(=O)=O)cc2)cn1 [Example 90, (R)-3-(3-methyl-4-(5-(4-(mcthylsulfonyl)bcnzyloxy)pyrimidin-2-yl)pipcrazin-1-yl)-5-(trifluoromcthyl)-1,2,4-oxadiazole] | 75% |
| C[C@@H]1CN(C(=O)O[C@H](C)C(F)(F)F)CCN1c1ncc(OCc2ccncc2C#N)cn1 [Example 103, (R)—((R)-1,1,1-trifluoropropan-2-yl) 4-(5-((3-cyanopyridin-4-yl)methoxy)pyrimidin-2-yl)-3-methylpiperazine-1-carboxylate] | 244% |
| C[C@@H]1CN(C(=O)O[C@@H](C)C(F)(F)F)CCN1c1ncc(OCc2ccncc2C#N)cn1 [Example 104, (R)-((S)-1,1,1-trifluoropropan-2-yl)4-(5-((3-cyanopyridin-4-yl)methoxy)pyrimidin-2-yl)-3-mcthylpipcrazine-1-carboxylate] | 315% |
| C[C@@H]1CN(c2noc(C3(C)COC3)n2)CCN1c1ncc(OCc2ccncc2C#N)cn1 [Example 107, (R)-4-((2-(2-methyl-4-(5-(3-methyloxetan-3-yl)-1,2,4-oxadiazol-3-yl)piperazin-1-yl)pyrimidin-5-yloxy)methyl)nicotinonitrile] | 188% |
| C[C@@H]1CN(C(=O)OC2(C(F)(F)F)COC2)CCN1c1ncc(OCc2ccc(S(C)(=O)=O)cc2)cn1 [Example 110, (R)-3-(trifluoromethyl) oxetan-3-yl 3-mcthyl-4-(5-(4-(mcthylsulfonyl)benzyloxy)pyrimidin-2-yl)piperazine-1-carboxylate] | 55% |
| C[C@@H]1CN(C(=O)OC2(C(F)(F)F)COC2)CCN1c1ncc(OCc2ccncc2C#N)cn1 [Example 111, (R)-3-(trifluoromcthyl) oxetan-3-yl 4-(5-((3-cyanopyridin-4-yl)mcthoxy)pyrimidin-2-yl)-3-mcthylpipcrazine-1-carboxylate] | 171% |

Further lines, results first:

| activation at 30 µM | Compound |
| --- | --- |
| 143% | CC1(OC(=O)N2CCN(c3ncc(OCc4ccncc4C#N)cn3)CC2)COC1 [Example 81, 3-methyloxetan-3-yl 4-(5-((3-cyanopyridin-4-yl)methoxy)pyrimi-din-2-yl)piperazine-1-carboxylate] |
| 66% | CCS(=O)(=O)c1ccc(COc2cnc(N3CCN(C(=O)OC(C)(C)C)CC3)nc2)cc1 [Example 83, Tert-butyl 4-(5-(4-(ethylsulfonyl)benzyloxy)pyrimidin-2-yl)piperazine-1-carboxylate] |
| 48% | CC(C)(C)OC(=O)N1CCN(c2ncc(OCc3ccc(S(=O)(=O)C4CC4)cc3)cn2)CC1 [Example 84, Tert-butyl 4-(5-(4-(cyclopropyl-sulfonyl)benzyloxy)pyrimidin-2-yl)pipcrazinc-1-carboxylate] |
| 32% | CC(C)(C)OC(=O)N1CCN(c2ncc(OCc3ccc([S+]([O-])C(F)(F)F)cc3)cn2)CC1 (stereo not drawn) [Example 91, Tert-butyl 4-(5-(4-(trifluoromethylsulfinyl)benzyloxy)pyrimidin-2-yl)piperazine-1-carboxylate] |
| 68% | CC(C)(C)OC(=O)N1CCN(c2ncc(OCc3ccc(S(=O)(=O)CCN4CCOCC4)cc3)cn2)CC1 [Example 92, Tert-butyl 4-(5-(4-(2-morpholinoethylsulfonyl)benzyloxy)pyrimidin-2-yl)piperazine-1-carboxylate] |
| 82% | C[S+]([O-])c1ccc(COc2cnc(N3CCN(C(=O)OC(C)(C)C)CC3)nc2)cc1 (stereo not drawn) [Example 93, Tert-butyl 4-(5-(4-(methylsulfinyl)benzyloxy)pyrimidin-2-yl)piperazine-1-carboxylate] |
| 44% | CC(C)C(=O)Nc1ncc(COc2cnc(N3CCN(C(=O)OC(C)(C)C)CC3)nc2)cn1 [Example 94, Tert-butyl 4-(5-((2-isobutyramidopyrimidin-5-yl)methoxy)pyrimidin-2-yl)piperazine-1-carboxylate] |
| 193% | N#Cc1cnccc1COc1cnc(N2CCN(C(=O)OCC(F)(F)F)CC2)nc1 [Example 106, 2,2,2-trifluorocthyl 4-(5-((3-cyanopyridin-4-yl)mcthoxy)pyrimidin-2-yl)pipcrazinc-1-carboxylate] |

same assay, conditions: Method A; HEK 293s cells over-expressing human GPR119; midpoint of dose response curve; selected examples

| EC50 | Compound |
| --- | --- |
| 675 nM | C[C@@H]1CN(C(=O)OC2CCOCC2)CCN1c1ncc(OCc2ccncc2C#N)cn1 [Example 82, (R)-Tetrahydro-2H-pyran-4-yl 4-(5-((3-cyanopyridin-4-yl)methoxy)pyrimidin-2-yl)-3-methylpiperazine-1-carboxylate] |
| 123 nM | CCS(=O)(=O)c1ccc(COc2cnc(N3CCN(C(=O)OC(C)(C)C)CC3)nc2)cc1 [Example 83, Tert-butyl 4-(5-(4-(ethylsulfonyl)benzyloxy)pyrimidin-2-yl)piperazine-1-carboxylate] |
| 26 nM | C[C@@H]1CN(c2noc(C(F)(F)F)n2)CCN1c1ncc(OCc2ccc(S(C)(=O)=O)cc2)cn1 [Example 90, (R)-3-(3-methyl-4-(5-(4-(mcthylsulfonyl)bcnzyloxy)pyrimidin-2-yl)pipcrazin-1-yl)-5-(trifluoromcthyl)-1,2,4-oxadiazole] |

same assay, conditions: human GPR119 cAMP assay; top concentration 30 μM

| Compound | significant activity at a top concentration of 30 μM |
| --- | --- |
| CS(=O)(=O)c1ccc(COc2cnc(N3CCN(C(=O)OC4CCOC4)CC3)nc2)cc1 (stereo not drawn) [tetrahydrofuran-3-yl 4-[5-[(4-methylsulfonylphenyl)methoxy]pyrimidin-2-yl]piperazine-1-carboxylate] | did not show significant activity |
| N#Cc1cnccc1COc1cnc(N2CCN(C(=O)OC3CCOCC3)CC2)nc1 [tetrahydropyran-4-yl 4-[5-[3-cyano-4-pyridyl)methoxy]pyrimidin-2-yl]piperazine-1-carboxylate] | did not show significant activity |
| CS(=O)(=O)c1ccc(COc2cnc(N3CCN(C(=O)OC4CCOCC4)CC3)nc2)cc1 [tetrahydropyran-4-yl 4-[5-[(4-methylsulfonylphenyl)methoxy]pyrimidin-2-yl]piperazine-1-carboxylate] | did not show significant activity |
| C[C@@H]1CN(C(=O)OC2CCOCC2)CCN1c1ncc(OCc2ccc(S(C)(=O)=O)cc2)cn1 [tetrahydropyran-4-yl (3R)-3-methyl-4-[5-[(4-methylsulfonylphenyl)methoxy]pyrimidin-2-yl]piperazine-1-carboxylate] | did not show significant activity |

Second part, the molecule after the results:

| significant activity at a top concentration of 30 μM | Compound |
| --- | --- |
| did not show significant activity | COc1cc(COc2cnc(N3CCN(C(=O)OC(C)(C)C)CC3)nc2)cc(OC)n1 [tert-butyl 4-[5-[(2,6-dimethoxy-4-pyridyl)methoxy]pyrimidin-2-yl]piperazine-1-carboxylate] |
| did not show significant activity | CC(=O)Nc1ncc(COc2cnc(N3CCN(C(=O)OC(C)(C)C)CC3)nc2)cn1 [tert-butyl 4-[5-[(2-acetamidopyrimidin-5-yl)methoxy]pyrimidin-2-yl]piperazine-1-carboxylate] |
| did not show significant activity | Cc1cc(COc2cnc(N3CCN(C(=O)OC(C)(C)C)CC3)nc2)ccn1 [tert-butyl 4-[5-[(2-methyl-4-pyridyl)methoxy]pyrimidin-2-yl]piperazine-1-carboxylate] |
| did not show significant activity | CN1CCC(NC(=O)c2ccc(COc3cnc(N4CCN(C(=O)OC(C)(C)C)CC4)nc3)cc2)CC1 [tert-butyl 4-[5-[[4-[(1-methyl-4-piperidyl)carbamoyl]phenyl]methoxy]pyrimidin-2-yl]piperazine-1-carboxylate] |
| did not show significant activity | CN1CCC(N(C)C(=O)c2ccc(COc3cnc(N4CCN(C(=O)OC(C)(C)C)CC4)nc3)cc2)CC1 [tert-butyl 4-[5-[[4-[methyl-(1-methyl-4-piperidyl)carbamoyl]phenyl]methoxy]pyrimidin-2-yl]piperazine-1-carboxylate] |
| did not show significant activity | N#Cc1cnccc1COc1cnc(N2CCN(C(=O)OC3CCOC3)CC2)nc1 (stereo not drawn) [tetrahydrofuran-3-yl 4-[5-[(3-cyano-4-pyridyl)methoxy]pyrimidin-2-yl]piperazine-1-carboxylate] |
